≈ marks a conversion by molar mass, not a printed value. Read-outs that look alike come from different tables or passages of the source.
Legend:
Trypanasoma cruzi = assay: Chagas disease bioassay; type: cell-based, T. cruzi; settings: Trypanosoma cruzi
Plasmodium falciparum = assay: Malaria bioassay; type: cell-based
Leishmania = settings: cited from earlier work
[1] = system: L. donovani amastigotes (LD-1S/MHOM/SD/00-strain 1S); type: cell-based; settings: Leishmania donovani, read-out: IC50 L. donovani

SMILES	IC50 (Trypanasoma cruzi; read-out: IC50 T. cruzi)	IC50 (Plasmodium falciparum; read-out: IC50 P. falciparum)	other results
O=C1C=CC(=O)C2=C1[C@@H](O)CCC21Oc2cccc3cccc(c23)O1 [Compound 4, 4(S)-hydroxy-2,3-dihydro-2(H)-spiro[naphthalene-1(4H),2'-naphtho[1,8-de][1,3]dioxin]-5,8-dione]	> 10 µg/mL	> 10 µg/mL	–
O=C1CCC2(Oc3cccc4cccc(c34)O2)c2cccc(O)c21 [Compound 2, palmarumycin CP2]	–	> 10 µg/mL	–
COc1cc(OC)c(-c2c(C)cc3cccc(OC)c3c2O)c2c1C(C)=N[C@@H](C)C2 [ancistrotanzanine A]	–	–	antileishmanial activity IC50 (Leishmania): 1.8 µg/mL
O=C1CCC2(Oc3cccc4cccc(c34)O2)c2c(O)ccc(O)c21 [Compound 3, palmarumycin CP17]	> 10 µg/mL	> 10 µg/mL	–
COc1cc(OC)c(-c2ccc(OC)c3c(OC)cc(C)cc23)c2c1C(C)=N[C@@H](C)C2 [ancistrotanzanine B]	–	–	antileishmanial activity IC50 (Leishmania): 1.6 µg/mL
Oc1cccc2c1[C@@H](O)CCC21Oc2cccc3cccc(c23)O1 [Compound 5, CJ-12,371]	–	> 10 µg/mL	–
CC1CS(=O)(=O)CCN1/N=C/c1ccc([N+](=O)[O-])o1 (stereo not drawn) [nifurtimox, reference compound]	–	–	IC50 (Trypanasoma cruzi; read-out: IC50 (positive control, Chagas disease bioassay)): 3 to 5 µg/mL (≈ 10.4 to 17.4 µM)
C[C@@H]1[C@H](O)[C@@H](C)/C=C/C=C/C=C/C=C/C=C/C=C/C=C/[C@H](O[C@@H]2O[C@H](C)[C@@H](O)[C@H](N)[C@@H]2O)C[C@@H]2O[C@](O)(C[C@@H](O)C[C@@H](O)[C@H](O)CC[C@@H](O)C[C@@H](O)CC(=O)O[C@H]1C)C[C@H](O)[C@H]2C(=O)O [amphotericin B]	–	–	IC50 [1]: 90 nM
CCN(CC)CCCC(C)Nc1ccnc2cc(Cl)ccc12 (stereo not drawn) [chloroquine, reference compound]	–	–	IC50 (Plasmodium falciparum; read-out: IC50 (positive control, malaria bioassay)): 80 to 100 nM
O=C1C=C[C@]23Oc4ccc(O)c5c4[C@](CCC5=O)(Oc4cccc1c42)O3 [Compound 1, preussomerin EG1]	> 10 µg/mL	–	–

— article PMC2774465 (Journal of natural products, 2008)
